Patent US6838416B2, “Herbicidal 5-benzyloxymethyl-1,2-isoxazoline derivatives” (Korea Research Institute of Chemical Technology, priority 2000, dated 2005)

How the values were obtained:
SCPJU (seed) = test: Assay for herbicidal activity, paddy pots: SCPJU; format: in vivo, Scirpus juncoides ROXB; conditions: three weeks after application, 0 untreated control, 100 complete kill
Excerpt: (§1) To evaluate herbicidal activity against the paddy weeds in the paddy rice (ORYSA: Oryza sativa L.), the herbicidal activity of the compounds of the invention was compared to that of the compound No.109 (compound A) disclosed in U.S. Pat. […] The paddy weeds tested were ECHOR (Echinochloa crus-galli var. oryzicola), SCPJU (Scirpus juncoides ROXB), MOOVA (Monochoria vaginalis […] (Cyperus serotinus ROTTB), and SAGPY (Sagittaria pygmaea MTQ). The vessels employed were plastic pots having an area of 140 cm^2 and filled with a sandy loam soil containing 1.2% organic matter (pH 6).

CYPSE (tuber) = test: Assay for herbicidal activity, paddy pots: CYPSE; format: in vivo, Cyperus serotinus ROTTB; conditions: three weeks after application, 0 untreated control, 100 complete kill
Excerpt: as §1

SAGPY (tuber) = test: Assay for herbicidal activity, paddy pots: SAGPY; format: in vivo, Sagittaria pygmaea MTQ; conditions: three weeks after application, 0 untreated control, 100 complete kill
Excerpt: as §1

ORYSA 2-leaf stage = test: Assay for herbicidal activity on the 2-leaf stage weeds and rice plants: rice 2-leaf stage; format: in vivo, Oryza sativa L.; conditions: applied at 2-leaf stage, 0 untreated control, 100 complete kill
Procedure: (§2) The vessels employed were plastic pots having an area of 140 cm^2 and filled with a sandy loam soil containing 1.2% organic matter (pH 6). Pregerminated seed of rice (ORYSA: Oryza sativa L.) and seed of ECHOR (Echinochloa crus-galli var oryzicola) were seeded on the soil surface, respectively. The pots were then watered at the depth of 3 cm just after seeding.
(§3) Seven days after seeding, the pregerminated seeds of rice were seeded on the soil face whilst the early seeded rice in the same pots and barnyard grass (ECHOR) grew up to the 2-leaf stage. Two days after, a solution of the compound of Example 8 and Tween-20 as a non-ionic emulsifier in 50% acetone, was diluted with water to a concentration of 0.016, 0.063, 0.25, 1 and 4.0 kg/ha, respectively and applied evenly to the test pots.
(§4) Three weeks after starting from the beginning, the application of the herbicide, the herbicidal activity on paddy weeds and the phytotoxicity to the paddy rice plant were visually rated by a percentage grading wherein 0 indicates as an untreated control and 100 indicates complete kill. The results are shown in the following

ECHOR 2-leaf stage = test: Assay for herbicidal activity on the 2-leaf stage weeds and rice plants: ECHOR 2-leaf stage; format: in vivo, Echinochloa crus-galli var oryzicola; conditions: applied at 2-leaf stage, 0 untreated control, 100 complete kill
Procedure: as §2, §3, §4

ORYSA seed = test: Assay for herbicidal activity on the 2-leaf stage weeds and rice plants: rice seed; format: in vivo, Oryza sativa L.; conditions: applied two days after seeding pregerminated seeds, 0 untreated control, 100 complete kill
Procedure: as §2, §3, §4

ECHOR (seed) = test: Assay for herbicidal activity, paddy pots: ECHOR; format: in vivo, Echinochloa crus-galli var. oryzicola; conditions: three weeks after application, 0 untreated control, 100 complete kill
Excerpt: as §1

MOOVA (seed) = test: Assay for herbicidal activity, paddy pots: MOOVA; format: in vivo, Monochoria vaginalis PRESL; conditions: three weeks after application, 0 untreated control, 100 complete kill
Excerpt: as §1

ORYSA (3-leaf stage) = test: Assay for herbicidal activity, paddy pots: phytotoxicity to transplanted rice seedlings; format: in vivo, Oryza sativa L.; conditions: three weeks after application, 0 untreated control, 100 complete kill
Excerpt: as §1

paddy weeds = test: Greenhouse herbicidal assays, overall statements on paddy weeds; format: in vivo
Excerpt: To evaluate herbicidal activity against the paddy weeds in the paddy rice (ORYSA: Oryza sativa L.), the herbicidal activity of the compounds of the invention was compared to that of the compound No.109 (compound A) disclosed in U.S. Pat. No. 4,983,210 which has a similar structure with that of the present invention. The paddy weeds tested were ECHOR (Echinochloa crus-galli var. oryzicola), SCPJU (Scirpus juncoides ROXB), MOOVA (Monochoria vaginalis PRESL), CYPSE (Cyperus serotinus ROTTB), and SAGPY (Sagittaria pygmaea MTQ).
The vessels employed were plastic pots having an area of 140 cm^2 and filled with a sandy loam soil containing 1.2% organic matter (pH 6). Rice seedlings at the 3-leaf stage (ORYSA: Oryza sativa L.) and pregerminated seeds of rice were transplanted at the depth of 2 cm or seeded on the soil surface, respectively. Then the seeds of ECHOR, SCPJU, and MOOVA were seeded and the tubers of CYPSE and SAGPY also planted on the soil surface in the above plastic pot, wherein the pots were watered at the depth of 3 cm just after planting.
Two days after planting, a solution of the test compound and a non-ionic emulsifier (Tween-20) in 50% acetone, was diluted with water to a concentration of 0.016, 0.063, 0.25, 1.0, and 4.0 kg/ha, respectively and applied evenly to the test pots. […]

ORYSA (seed) = test: Assay for herbicidal activity, paddy pots: phytotoxicity to seeded (pregerminated) rice; format: in vivo, Oryza sativa L.; conditions: three weeks after application, 0 untreated control, 100 complete kill
Excerpt: as §1

SMILES	SCPJU (seed) herbicidal activity, visual percentage grading (SCPJU (seed); 0.016 kg/ha)	SCPJU (seed) herbicidal activity, visual percentage grading (SCPJU (seed); 0.063 kg/ha)	SCPJU (seed) herbicidal activity, visual percentage grading (SCPJU (seed); 0.250 kg/ha)	SCPJU (seed) herbicidal activity, visual percentage grading (SCPJU (seed); 1.000 kg/ha)	SCPJU (seed) herbicidal activity, visual percentage grading (SCPJU (seed); 4.000 kg/ha)	CYPSE (tuber) herbicidal activity, visual percentage grading (CYPSE (tuber); 0.016 kg/ha)	CYPSE (tuber) herbicidal activity, visual percentage grading (CYPSE (tuber); 0.063 kg/ha)	CYPSE (tuber) herbicidal activity, visual percentage grading (CYPSE (tuber); 0.250 kg/ha)	CYPSE (tuber) herbicidal activity, visual percentage grading (CYPSE (tuber); 1.000 kg/ha)	CYPSE (tuber) herbicidal activity, visual percentage grading (CYPSE (tuber); 4.000 kg/ha)	SAGPY (tuber) herbicidal activity, visual percentage grading (SAGPY (tuber); 0.016 kg/ha)	SAGPY (tuber) herbicidal activity, visual percentage grading (SAGPY (tuber); 0.063 kg/ha)	SAGPY (tuber) herbicidal activity, visual percentage grading (SAGPY (tuber); 0.250 kg/ha)	SAGPY (tuber) herbicidal activity, visual percentage grading (SAGPY (tuber); 1.000 kg/ha)	SAGPY (tuber) herbicidal activity, visual percentage grading (SAGPY (tuber); 4.000 kg/ha)	ECHOR (seed) herbicidal activity, visual percentage grading (ECHOR (seed); 0.016 kg/ha)	ECHOR (seed) herbicidal activity, visual percentage grading (ECHOR (seed); 0.063 kg/ha)	ECHOR (seed) herbicidal activity, visual percentage grading (ECHOR (seed); 0.250 kg/ha)	ECHOR (seed) herbicidal activity, visual percentage grading (ECHOR (seed); 1.000 kg/ha)	ECHOR (seed) herbicidal activity, visual percentage grading (ECHOR (seed); 4.000 kg/ha)	further results
Cc1ccsc1C1=NOC(C)(COCc2c(F)cccc2F)C1 (centres unmarked) [EXAMPLE 8, 5-(2,6-difluorobenzyl)oxymethyl-5-methyl-3-(4-methylthiophene-5-yl)-1,2-isoxazoline]	0%	10%	10%	40%	100%	0%	50%	90%	100%	100%	0%	0%	0%	50%	80%	50%	100%	100%	100%	100%	ORYSA 2-leaf stage phytotoxicity, visual percentage grading (ORYSA 2-leaf stage; 0.016 kg/ha): 0%; ORYSA 2-leaf stage phytotoxicity, visual percentage grading (ORYSA 2-leaf stage; 0.063 kg/ha): 0%; ORYSA 2-leaf stage phytotoxicity, visual percentage grading (ORYSA 2-leaf stage; 0.250 kg/ha): 0%; ORYSA 2-leaf stage phytotoxicity, visual percentage grading (ORYSA 2-leaf stage; 1.000 kg/ha): 20%; ORYSA 2-leaf stage phytotoxicity, visual percentage grading (ORYSA 2-leaf stage; 4.000 kg/ha): 65%; ECHOR 2-leaf stage herbicidal activity, visual percentage grading (ECHOR 2-leaf stage; 0.016 kg/ha): 45%; ECHOR 2-leaf stage herbicidal activity, visual percentage grading (ECHOR 2-leaf stage; 0.063 kg/ha): 95%; ECHOR 2-leaf stage herbicidal activity, visual percentage grading (ECHOR 2-leaf stage; 0.250 kg/ha): 100%; ECHOR 2-leaf stage herbicidal activity, visual percentage grading (ECHOR 2-leaf stage; 1.000 kg/ha): 100%; ECHOR 2-leaf stage herbicidal activity, visual percentage grading (ECHOR 2-leaf stage; 4.000 kg/ha): 100%; ORYSA (seed) phytotoxicity, visual percentage grading (ORYSA seed; 0.016 kg/ha): 0%; ORYSA (seed) phytotoxicity, visual percentage grading (ORYSA seed; 0.063 kg/ha): 20%; ORYSA (seed) phytotoxicity, visual percentage grading (ORYSA seed; 0.250 kg/ha): 55%; ORYSA (seed) phytotoxicity, visual percentage grading (ORYSA seed; 1.000 kg/ha): 80%; ORYSA (seed) phytotoxicity, visual percentage grading (ORYSA seed; 4.000 kg/ha): 95%; MOOVA (seed) herbicidal activity, visual percentage grading (MOOVA (seed); 0.016 kg/ha): 50%; MOOVA (seed) herbicidal activity, visual percentage grading (MOOVA (seed); 0.063 kg/ha): 90%; MOOVA (seed) herbicidal activity, visual percentage grading (MOOVA (seed); 0.250 kg/ha): 90%; MOOVA (seed) herbicidal activity, visual percentage grading (MOOVA (seed); 1.000 kg/ha): 100%; MOOVA (seed) herbicidal activity, visual percentage grading (MOOVA (seed); 4.000 kg/ha): 100%
CC1(COCc2c(F)cccc2F)CC(c2cccs2)=NO1 (centres unmarked) [Compound A, reference compound]	0%	0%	10%	70%	100%	0%	0%	10%	100%	100%	0%	0%	100%	100%	100%	0%	0%	20%	100%	100%	ORYSA (3-leaf stage) phytotoxicity, visual percentage grading (ORYSA (3-leaf stage); 0.016 kg/ha): 0%; ORYSA (3-leaf stage) phytotoxicity, visual percentage grading (ORYSA (3-leaf stage); 0.063 kg/ha): 0%; ORYSA (3-leaf stage) phytotoxicity, visual percentage grading (ORYSA (3-leaf stage); 0.250 kg/ha): 0%; ORYSA (3-leaf stage) phytotoxicity, visual percentage grading (ORYSA (3-leaf stage); 1.000 kg/ha): 0%; ORYSA (3-leaf stage) phytotoxicity, visual percentage grading (ORYSA (3-leaf stage); 4.000 kg/ha): 0%; herbicidal activity, in words (paddy weeds; at the higher doses): active; herbicidal activity, in words (paddy weeds; at the lower doses): inactive; MOOVA (seed) herbicidal activity, visual percentage grading (MOOVA (seed); 0.016 kg/ha): 0%; MOOVA (seed) herbicidal activity, visual percentage grading (MOOVA (seed); 0.063 kg/ha): 0%; MOOVA (seed) herbicidal activity, visual percentage grading (MOOVA (seed); 0.250 kg/ha): 80%; MOOVA (seed) herbicidal activity, visual percentage grading (MOOVA (seed); 1.000 kg/ha): 80%; MOOVA (seed) herbicidal activity, visual percentage grading (MOOVA (seed); 4.000 kg/ha): 100%; ORYSA (seed) phytotoxicity, visual percentage grading (ORYSA (seed); 0.016 kg/ha): 0%; ORYSA (seed) phytotoxicity, visual percentage grading (ORYSA (seed); 0.063 kg/ha): 0%; ORYSA (seed) phytotoxicity, visual percentage grading (ORYSA (seed); 0.250 kg/ha): 20%; ORYSA (seed) phytotoxicity, visual percentage grading (ORYSA (seed); 1.000 kg/ha): 100%; ORYSA (seed) phytotoxicity, visual percentage grading (ORYSA (seed); 4.000 kg/ha): 100%
